Results taken from PubChem BioAssay (NCI).
Values joined by “and” are separate entries in the source; they are usually repeats but may differ in a detail not shown here. Identical values can stand only once.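 In this assay, cells in 96-well plates receive the compound at five concentrations for 48 hours. Endpoints are linearly interpolated between the surrounding concentrations. GI50: concentration for 50% inhibition of growth. At the TGI there is no net growth.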

Experiments:
Assay in all cases: NCI-60 cell line screen, 48 h
[1] = system: U251 CNS
[2] = system: HCT-15 colon
[3] = system: MOLT-4 leukemia
[4] = system: HT29 colon
[5] = system: SW-620 colon
[6] = system: OVCAR-5 ovarian
[7] = system: SR leukemia
[8] = system: MALME-3M melanoma
[9] = system: 786-0 renal
[10] = system: HCT-116 colon

SMILES | GI50 [1] [µM] | TGI [1] | GI50 [2] [µM] | TGI [2] | GI50 [3] [µM] | TGI [3] [µM] | GI50 [4] [µM] | TGI [4] | GI50 [5] [µM] | TGI [5] [µM] | GI50 [6] | TGI [6] [µM] | GI50 [7] [µM] | TGI [7] [µM] | GI50 [8] [µM] | TGI [8] [µM] | GI50 [9] [µM] | TGI [9] [µM] | GI50 [10] [µM] | TGI [10]
COc1cc(-c2cn(-c3ccc(Cl)cc3)c(C)c2C(=O)C(F)(F)F)cc(OC)c1OC | > 100 | > 100 µM | > 100 | > 100 µM | 6.01 | > 100 | 73.2 | > 100 µM | > 100 | > 100 | > 100 µM | > 100 | 4.92 | > 100 | > 100 | > 100 | > 100 | > 100 | 7.03 | > 100 µM
CCCCn1cnc2c(SC)ncnc21 |  | > 100 µM |  | > 100 µM |  | > 100 |  | > 100 µM |  | > 100 |  | > 100 |  | 94.4 |  | > 100 |  | > 100 |  | > 100 µM
O=C(CN1CCN(c2ccccc2)CC1)N1CCc2c([nH]c3ccccc23)C1c1cccnc1 (stereo unspecified) |  | 42.2 µM |  | > 100 µM |  | > 100 |  | > 100 µM |  | > 100 |  | > 100 |  | > 100 |  | > 100 |  | 50.8 |  | 21.3 µM
N#CC(C(=O)C(=O)NCCCNC(=O)C(=O)C(C#N)c1ccccc1)c1ccccc1 (stereo unspecified) |  | > 100 µM |  | > 100 µM |  | > 100 |  | > 100 µM |  | > 100 |  | > 100 |  | > 100 |  | > 100 |  | > 100 |  | > 100 µM
Cc1cc2c3ccccc3n(C)c2c2c1C(=O)C=CC2=O |  | 32.6 µM |  | 29.2 µM |  | 46.3 |  | 20.5 µM |  | 32.8 |  | 35.4 |  | 38.9 |  | 45.7 |  | 13.4 |  | 39.2 µM
COC(=O)CNC(=O)[C@@H](OC)[C@@H]1Cc2cc3cc(OC4CC(OC5CC(O)C(O)C(C)O5)C(O)C(C)O4)c(C)c(O)c3c(O)c2C(=O)[C@H]1OC1CC(OC2CC(OC3CC(C)(O)C(O)C(C)O3)C(O)C(C)O2)C(O)C(C)O1 (stereo partly specified) | 0.0806 | > 50 µM | 1.12 | > 50 µM | 0.198 | 3.35 | 0.171 | > 50 µM | 0.184 | > 50 | 0.184 µM | > 50 | 0.0298 | > 50 | 0.123 | 1.03 | 0.26 | > 50 | 0.0462 | 5.38 µM
CC1OC2CC(=O)OC2C2=C1C(=O)c1c(O)c3c(c(O)c1C2=O)C1CC(O)C3(O)C(C)O1 (stereo unspecified) | 0.296 | 1.07 µM | 0.367 | 3.69 µM | 0.244 | 0.64 | 0.229 | 1.14 µM | 0.168 | 0.774 | 0.292 µM | 0.879 | 0.344 | 5.86 | 0.142 | 0.385 | 0.635 | 1.78 | 0.0452 | 0.252 µM
CC12CCC(=O)C=C1CCC1C2C(O)CC2(C)C(c3csc(N)n3)CCC12 (stereo unspecified) |  | > 100 µM |  | > 100 µM |  | > 100 |  | > 100 µM |  | > 100 |  | > 100 |  | > 100 |  | > 100 |  | > 100 |  | > 100 µM
COc1cc(Nc2nc(N[C@H]3CCCC[C@@H]3N)nc3cc[nH]c(=O)c23)cc(OC)c1 | 1.46 | 5.31 µM | 3.97 | 18.3 µM | 1.19 | 11.4 | 0.391 | 3.69 µM | 1.16 | 2.97 | 1.11 µM | 14.6 | 0.8 | 3.91 | 2.2 | 22.5 | 3.31 | 18.8 | 1.03 | 2.27 µM
CN(C)CCCN1CCc2c([nH]c3ccccc23)C1c1cccnc1 (stereo unspecified) |  | > 100 µM |  | > 100 µM |  | > 100 |  | > 100 µM |  | > 100 |  | > 100 |  | > 100 |  | > 100 |  | > 100 |  | > 100 µM
O=C(CCl)N1c2ccccc2Sc2c1ccc1ccccc21 | 1.65 | 3.13 µM | 1.92 | 4.83 µM | 2.49 | > 100 | 3.58 | 15.5 µM | 1.66 | 3.68 | 2.16 µM | 5.07 | 2.4 | 9.55 | 2.75 | 7 | 1.82 | 3.27 | 1.45 | 2.78 µM
Cc1cc(=O)oc2cc3c(cc12)Oc1ccccc1O3 |  | > 100 µM |  | > 100 µM |  | > 100 |  | > 100 µM |  | > 100 |  | > 100 |  | > 100 |  | > 100 |  | > 100 |  | > 100 µM
CCOc1ccc(NCc2cc(OC)c(OC)c(OC)c2)cc1 |  | 19.3 µM and 22.3 µM |  | 45.9 µM and 32.7 µM |  | > 100 |  | 8.98 µM and 11.8 µM |  | > 100 | 10.5 µM and 4.43 µM | > 93.8 |  | > 100 |  | > 100 |  | > 100 |  | 48.2 µM and 46 µM
CCOC(=O)NN1C(=O)C(=P(c2ccccc2)(c2ccccc2)c2ccccc2)C(C(=O)OCC)=C1C |  | > 100 µM |  | > 100 µM |  | > 100 |  | > 100 µM |  | > 100 |  | > 100 |  | > 100 |  | > 100 |  | > 100 |  | > 100 µM
COc1cccc(C2c3cc4c(cc3OC(O)(CO)C2C(=O)O)OCO4)c1 (stereo unspecified) (tested in a mixture with another compound) |  | 62.2 µM |  | > 100 µM |  | > 100 |  | > 100 µM |  | > 100 |  | > 100 |  | > 100 |  | > 100 |  | > 100 |  | > 100 µM
CCCCN(Cc1ccc(F)cc1)c1ccc(CO)c(Cl)c1 | 4.57 | 18.9 µM | 13.4 | 28.5 µM | 17.8 | 43.1 | 13.7 | 29.1 µM | 6.11 | 20.7 | 0.531 µM | 2.9 | 14.6 | 34.7 | 17.7 | 33.8 | 12.2 | 25.6 | 0.906 | 13.2 µM
